Assay results published in patent US6699892B2, “Pharmaceutically acceptable salt of amlodipine and method of preparing the same” (Yung Shin Pharmaceutical Industrial Co., Ltd., priority 2002, dated 2004).
≈ marks a conversion by molar mass, not a printed value. Where two headings read alike, the source gives them in different places.

How the values were obtained:
[1] = type: physicochemical; details: 3 weeks
Experimental: The stability of amlodipine nicotinate and amlodipine besylate was tested at 45° C. and 75° C. for 3 weeks.

[2] = Solubility in water at room temperature (saturated aqueous solution); type: physicochemical; details: room temperature of about 25° C.
Experimental: At the ambient temperature (room temperature of about 25° C.), a saturated aqueous solution of amlodipine nicotinate contains about 6.0 mg of the chemical per mL of water. In comparison, a saturated aqueous solution of amlodipine besylate contains about 2.0 mg of the chemical per mL of water.

[3] = aqueous solution
[4] = listed as amlodipine nicotinate

| Structure (SMILES) | Stability Test (% of Sample Purity) (3-week) 45° C. [1] [%] | Stability Test (% of Sample Purity) (3-week) 75° C. [1] [%] | Solubility in Water at Room Temperature [2] | pH Value [3] | Solubility in Water at Room Temperature [2, 4] | pH Value [3, 4] |
| --- | --- | --- | --- | --- | --- | --- |
| CCOC(=O)C1=C(COCCN)NC(C)=C(C(=O)OC)C1c1ccccc1Cl (stereo not shown) [Amlodipine Besylate, amlodipine besylate, reference compound] | 99.6 | 97.8 | about 2.0 mg/ml | 6.09 |  |  |
| CCOC(=O)C1=C(COCCN)NC(C)=C(C(=O)OC)C1c1ccccc1Cl (stereo not shown) [Amlodipine Nicotinate, amlodipine nicotinate] | 99.7 | 99.2 | 6000 µg/mL (≈ 14.7 mM) | 5.34 | about 6.0 mg/ml | 5.34 |
